We go through nine compounds from patent US20240391936A1, “TETRAHYDROTHIENO PYRIDINE DERIVATIVES AS DDRS INHIBITORS” (CHIESI FARMACEUTICI S.P.A., priority 2021, published 2024).

Each structure is given as a SMILES string.

Assay [1] deals with T1, DDR2 (Homo sapiens, UniProt Q16832).
T1 sequence (Q16832 22-855): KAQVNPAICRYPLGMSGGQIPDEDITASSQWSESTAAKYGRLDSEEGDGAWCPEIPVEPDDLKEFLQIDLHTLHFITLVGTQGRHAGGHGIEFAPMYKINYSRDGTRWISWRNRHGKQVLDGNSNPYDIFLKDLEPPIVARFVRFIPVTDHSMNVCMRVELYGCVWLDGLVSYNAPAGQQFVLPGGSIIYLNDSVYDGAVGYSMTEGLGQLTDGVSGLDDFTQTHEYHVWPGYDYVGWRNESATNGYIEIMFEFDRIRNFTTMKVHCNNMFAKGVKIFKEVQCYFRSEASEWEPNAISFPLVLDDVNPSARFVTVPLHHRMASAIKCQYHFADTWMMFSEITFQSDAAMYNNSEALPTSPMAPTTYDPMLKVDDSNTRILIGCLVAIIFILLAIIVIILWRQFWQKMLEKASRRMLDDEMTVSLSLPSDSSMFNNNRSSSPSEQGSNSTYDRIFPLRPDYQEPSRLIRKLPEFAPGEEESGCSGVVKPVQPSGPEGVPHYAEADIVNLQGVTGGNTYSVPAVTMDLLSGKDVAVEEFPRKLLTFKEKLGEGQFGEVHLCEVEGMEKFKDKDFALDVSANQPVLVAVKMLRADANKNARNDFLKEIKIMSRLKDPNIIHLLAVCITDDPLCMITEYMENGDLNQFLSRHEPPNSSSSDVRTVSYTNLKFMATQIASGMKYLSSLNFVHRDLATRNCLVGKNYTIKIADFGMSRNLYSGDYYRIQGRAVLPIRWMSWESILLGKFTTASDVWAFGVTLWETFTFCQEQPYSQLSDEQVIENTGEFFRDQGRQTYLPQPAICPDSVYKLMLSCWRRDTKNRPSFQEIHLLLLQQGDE
As to the kind of experiment: DDR2 binding assay (LanthaScreen Europium Kinase Binding assay). Set-up: purchased Life Technologies. To be noted: binding assay, 5 nM DDR2, 10 nM Kinase Tracer 178; Ki from IC50 by Cheng-Prusoff; read-out: Ki DDR2. On the procedure:
(§1) DDR1 and DDR2 binding assays were performed using Life Technologies LanthaScreen™ Europium Kinase Binding assay. The compounds were incubated with 5 nM DDR1 (Carna Biosciences) or 5 nM DDR2 (Life Technologies) for 1 hour at room temperature in white 384-well OptiPlate (PerkinElmer), containing 20 nM or 10 nM Kinase Tracer 178 respectively and 2 nM Europium labelled anti-GST antibody (Life Technologies) in assay buffer (50 mM HEPES pH 7.5, 10 mM MgCl2, 1 mM EGTA and 0.01% BRIJ35).
(§2) The ratio of fluorescence emission 665 nm/615 nm after excitation at 340 nm was obtained using the Tecan Spark 20M plate reader. IC50 values were determined in GraphPad Prism 7.0 software, using 4 parameter model: log(inhibitor) vs. response. IC50 values were converted in Ki using the Cheng-Prusoff equation
(In general: Time-resolved FRET reads energy transfer from a long-lived donor to a nearby acceptor.)

The target of assay [2] is T2, DDR1 (Homo sapiens, UniProt Q08345). As to the kind of experiment: DDR1 cell based assay (PathHunter U2OS DDR1 assay). The note with it: U2OS-DDR1 cells, bovine Type II Collagen 20 μg/ml. Set-up: host or cells: U2OS-DDR1 (PathHunter). Here is the method: The inhibition of DDR1 receptor activation by compounds was evaluated by PathHunter® U2OS DDR1 assay (Eurofins DiscoverX), according to the manufacturer's instructions. Briefly, U2OS-DDR1 cells were seeded in white 384-well plates at a density of 5000 cells/well and incubated for 2 hours at 37° C. and 5% CO2. Cells were then treated with compounds at different concentrations and incubated for 30 minutes, before stimulation with bovine Type II Collagen 20 μg/ml and incubation overnight at 37° C. and 5% CO2. PathHunter Detection Reagents were prepared according to the protocol provided by DiscoverX and 20 μl/well of this mix were added to each well. After incubating the plates for 1 hour at room temperature in the dark, luminescence signal was acquired with a plate reader. Raw data were normalized to vehicle control (0% for normalization) and positive control (100% for normalization; cells treated with 20 μg/ml collagen II) and IC50 parameters were calculated in GraphPad Prism 8.0 software, using sigmoidal dose-response curve fitting with variable slope.
T2 sequence (Q08345 19-913): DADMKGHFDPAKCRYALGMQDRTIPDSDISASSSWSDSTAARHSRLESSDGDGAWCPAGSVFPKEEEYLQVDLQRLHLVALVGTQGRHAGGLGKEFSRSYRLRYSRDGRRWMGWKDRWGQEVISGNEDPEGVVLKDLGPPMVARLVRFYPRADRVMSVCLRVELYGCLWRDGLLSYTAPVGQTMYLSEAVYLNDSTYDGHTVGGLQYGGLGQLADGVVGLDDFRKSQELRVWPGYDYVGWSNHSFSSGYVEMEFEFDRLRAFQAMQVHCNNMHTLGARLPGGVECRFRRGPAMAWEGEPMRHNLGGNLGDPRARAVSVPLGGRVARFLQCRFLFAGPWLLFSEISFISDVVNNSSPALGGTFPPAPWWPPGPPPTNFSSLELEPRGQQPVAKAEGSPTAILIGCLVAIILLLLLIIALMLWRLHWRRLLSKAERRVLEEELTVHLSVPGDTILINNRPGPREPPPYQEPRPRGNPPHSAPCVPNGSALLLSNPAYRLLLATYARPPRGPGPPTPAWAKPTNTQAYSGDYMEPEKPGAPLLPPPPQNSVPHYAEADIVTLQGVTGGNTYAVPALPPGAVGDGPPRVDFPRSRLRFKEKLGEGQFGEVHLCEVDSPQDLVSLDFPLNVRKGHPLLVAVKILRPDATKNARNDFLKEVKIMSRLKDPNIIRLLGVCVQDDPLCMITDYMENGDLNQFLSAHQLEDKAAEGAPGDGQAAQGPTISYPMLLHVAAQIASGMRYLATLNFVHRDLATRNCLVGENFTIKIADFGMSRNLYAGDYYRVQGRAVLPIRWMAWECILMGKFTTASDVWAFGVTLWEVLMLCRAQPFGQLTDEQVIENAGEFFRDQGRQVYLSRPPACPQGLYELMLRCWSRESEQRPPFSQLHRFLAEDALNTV

In assay [3] the target is T2, DDR1. As to the kind of experiment: DDR1 binding assay (LanthaScreen Europium Kinase Binding assay). The arrangement: purchased Carna Biosciences. The note with it: binding assay, 5 nM DDR1, 20 nM Kinase Tracer 178; Ki from IC50 by Cheng-Prusoff; read-out: Ki DDR1. On the procedure: as §1, §2

The term Ki denotes the dissociation constant of the complex between target and ligand, obtained from inhibition or displacement. Broadly, the IC50 is the concentration that gives 50% inhibition. Read a low IC50 as greater potency in that assay.

As to `COc1ccn2c(C(=O)N3CCc4c(C(=O)Nc5cncc(C(F)(F)F)c5)csc4C3)cnc2c1` [Example 142, 6-(7-methoxyimidazo[1,2-a]pyridine-3-carbonyl)-N-(5-(trifluoromethyl)pyridin-3-yl)-4,5,6,7-tetrahydrothieno[2,3-c]pyridine-3-carboxamide], the inhibitory constant (Ki) in assay [1] and in assay [3] was less than 0.025 µM each time. The compound further gave an IC50 in assay [2] of 0.05 to 0.08 µM.
Turning to `CN(C)C1CCN(Cc2cc(NC(=O)c3csc4c3CCN(C(=O)c3cnc5ccccn35)C4)cc(C(F)(F)F)c2)C1` (stereo not drawn) [Example 56, N-(3-((3-(dimethylamino)pyrrolidin-1-yl)methyl)-5-(trifluoromethyl)phenyl)-6-(imidazo[1,2-a]pyridine-3-carbonyl)-4,5,6,7-tetrahydrothieno[2,3-c]pyridine-3-carboxamide], the Ki in assay [1] and in assay [3] was less than 0.025 µM in each case. Also, the 50% inhibitory concentration (IC50) in assay [2] was less than 0.025 µM.
Take `O=C(Nc1ccc(OCCO)c(C(F)(F)F)c1)c1csc2c1CCN(C(=O)c1cnc3ccccn13)C2` [Example 16, N-(4-(2-hydroxyethoxy)-3-(trifluoromethyl)phenyl)-6-(imidazo[1,2-a]pyridine-3-carbonyl)-4,5,6,7-tetrahydrothieno[2,3-c]pyridine-3-carboxamide]: the inhibition constant (Ki) in assay [1] and in assay [3] was less than 0.025 µM in each case. For the same compound, the IC50 in assay [2] was less than 0.025 µM.
Turning to `O=C(Nc1ccc(CO)c(C(F)(F)F)c1)c1csc2c1CCN(C(=O)c1cnn3ccncc13)C2` [Example 180, N-(4-(hydroxymethyl)-3-(trifluoromethyl)phenyl)-6-(pyrazolo[1,5-a]pyrazine-3-carbonyl)-4,5,6,7-tetrahydrothieno[2,3-c]pyridine-3-carboxamide], the Ki in assay [1] and in assay [3] was less than 0.025 µM throughout. The 50% inhibitory concentration (IC50) in assay [2] fell in the range of 0.025 to 0.05 µM.
On to `O=C(Nc1cccc(C(F)(F)F)c1)c1csc2c1CCN(C(=O)c1cnn3cccnc13)C2` [Example 94, 6-(pyrazolo[1,5-a]pyrimidine-3-carbonyl)-N-(3-(trifluoromethyl)phenyl)-4,5,6,7-tetrahydrothieno[2,3-c]pyridine-3-carboxamide], for which the inhibitory constant (Ki) in assay [1] and in assay [3] was less than 0.025 µM in each case. Further, the half-inhibitory concentration (IC50) in assay [2] lay in the range of 0.05 to 0.08 µM.
For `CC(C)(C)c1cc(NC(=O)c2csc3c2CCN(C(=O)c2cnc4ccccn24)C3)n(-c2ccc(F)cc2)n1` [Example 5, N-(3-(tert-butyl)-1-(4-fluorophenyl)-1H-pyrazol-5-yl)-6-(imidazo[1,2-a]pyridine-3-carbonyl)-4,5,6,7-tetrahydrothieno[2,3-c]pyridine-3-carboxamide], the inhibition constant (Ki) in assay [1] and in assay [3] was less than 0.025 µM throughout. This compound also had a half-inhibitory concentration (IC50) in assay [2] of 0.025 to 0.05 µM.
As for `O=C(Nc1cncc(OC(F)F)c1)c1csc2c1CCN(C(=O)c1cnn3ccncc13)C2` [Example 125, N-(5-(difluoromethoxy)pyridin-3-yl)-6-(pyrazolo[1,5-a]pyrazine-3-carbonyl)-4,5,6,7-tetrahydrothieno[2,3-c]pyridine-3-carboxamide], the Ki in assay [1] and in assay [3] was less than 0.025 µM throughout. This compound displayed an IC50 in assay [2] of 0.025 to 0.05 µM.
For `CN(CCO)Cc1cc(NC(=O)c2csc3c2CCN(C(=O)c2cnc4ccccn24)C3)cc(C(F)(F)F)c1` [Example 57, N-(3-(((2-hydroxyethyl)(methyl)amino)methyl)-5-(trifluoromethyl)phenyl)-6-(imidazo[1,2-a]pyridine-3-carbonyl)-4,5,6,7-tetrahydrothieno[2,3-c]pyridine-3-carboxamide], the inhibition constant Ki in assay [1] and in assay [3] was less than 0.025 µM throughout. In assay [2], this compound came in with an IC50 of less than 0.025 µM.
For the compound `O=C(Nc1cccc(C(F)(F)F)c1)c1csc2c1CCN(C(=O)c1cnc3ccc(OCCN4CCOCC4)cn13)C2` [Example 170, 6-(6-(2-morpholinoethoxy)imidazo[1,2-a]pyridine-3-carbonyl)-N-(3-(trifluoromethyl)phenyl)-4,5,6,7-tetrahydro thieno[2,3-c]pyridine-3-carboxamide], the Ki in assay [1] and in assay [3] was less than 0.025 µM each time. Also, the IC50 in assay [2] was 0.025 to 0.05 µM.
